Experimental data as given in patent publication US6720008B2, “Composition and method for the encapsulation of water-soluble molecules into nanoparticles” (PR Pharmaceuticals, Inc., priority 2002, dated 2004).

Experiment: Solubility of eosin in oil and organic solvent
Assay type: physicochemical
Method: A water/oil microemulsion was prepared as follows: 1.0 ml isopropyl myristate was added to 1.4 ml of a surfactant mixture consisting of polyoxyethylene sorbitan monooleate (Tween 80): sorbitan monolaurate (Span 20): ethanol in a 45:30:25 volume ratio. Next, 0.6 ml of a 6% (w/v) eosin Y solution was added and the mixture briefly vortexed until an optically clear, single phase solution resulted (it was confirmed that eosin was not soluble in the oil or the ethyl acetate prior to formulation of the microemulsion nanocapsules).
A water/oil microemulsion was prepared by adding 0.5 ml hexadecane to a surfactant mixture consisting of polyoxyethylene sorbitan monooleate (Tween 80): sorbitan monolaurate (Span 20): ethanol in a 45:30:25 volume ratio. To that mixture, 0.35 ml of a 6% (w/v) eosin Y solution was added. […] Nanoparticles were formed and the eosin encapsulation was measured as described in Example 1. The amount of eosin incorporated into nanocapsules was 98% of the initial quantity added.

solubility of eosin in hexadecane (conditions of Example 2): not to be soluble
solubility of eosin in the oil or the ethyl acetate (oil = isopropyl myristate, prior to formulation of the microemulsion nanocapsules): not soluble
SMILES: O=C1OC2(c3ccccc31)c1cc(Br)c(O)c(Br)c1Oc1c2cc(Br)c(O)c1Br [eosin, eosin Y]
